Measured values reported in patent publication US20240408093A1, “HETEROBIFUNCTIONAL COMPOUNDS AND THEIR USE IN TREATING DISEASE” (HALDA THERAPEUTICS OPCO, INC., priority 2022, published 2024).
Where two headings read alike, the source gives them in different places.

Tests used:
GSPT1 [1] = target: T1, GSPT1 (Homo sapiens, UniProt P15170+Q96SW2); assay: GSPT1 HiBiT degradation assay; type: cell-based; settings: HEK293 LgBiT GSPT1 HiBiT cells, 6 hours
T1 construct: host or cells: HEK293 LgBiT / GSPT1 HiBiT CRISPR knock-in
How it was run: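 HEK293 CRISPR knock-in cells expressing LgBiT and GSPT1-HiBiT were seeded at 1000 cells/well and, after 18-24 h, treated with titrated compound plus endurazine (0.5× final) at 37 °C. Luminescence read after 6 h; loss of signal reflects GSPT1 degradation, giving DC50.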

GSPT1 [2] = assay: Payload release assay (DC50 readout), GSPT1 degradation in the presence of recombinant target protein; type: cell-based; settings: I-series compounds (GSPT1 readout inferred)
[3] = target: T2, EGFR T790M, L858R (amino acids 669-1011) (Homo sapiens, UniProt P00533, L858R/T790M); assay: KdELECT binding assay, EGFR T790M, L858R
T2 construct: purchased Eurofins Discovery (KdELECT); host or cells: mammalian cells (HEK-293)

[4] = 0 μM recombinant EGFR T790M L858R, read-out: DC50 at 0 μM EGFR T790M L858R
[5] = 0 μM recombinant EGFR WT, read-out: DC50 at 0 μM EGFR WT
[6] = 3 μM recombinant EGFR T790M L858R, read-out: DC50 at 3 μM EGFR T790M L858R
[7] = 3 μM recombinant EGFR WT, read-out: DC50 at 3 μM EGFR WT

T1 sequence (P15170 whole entry): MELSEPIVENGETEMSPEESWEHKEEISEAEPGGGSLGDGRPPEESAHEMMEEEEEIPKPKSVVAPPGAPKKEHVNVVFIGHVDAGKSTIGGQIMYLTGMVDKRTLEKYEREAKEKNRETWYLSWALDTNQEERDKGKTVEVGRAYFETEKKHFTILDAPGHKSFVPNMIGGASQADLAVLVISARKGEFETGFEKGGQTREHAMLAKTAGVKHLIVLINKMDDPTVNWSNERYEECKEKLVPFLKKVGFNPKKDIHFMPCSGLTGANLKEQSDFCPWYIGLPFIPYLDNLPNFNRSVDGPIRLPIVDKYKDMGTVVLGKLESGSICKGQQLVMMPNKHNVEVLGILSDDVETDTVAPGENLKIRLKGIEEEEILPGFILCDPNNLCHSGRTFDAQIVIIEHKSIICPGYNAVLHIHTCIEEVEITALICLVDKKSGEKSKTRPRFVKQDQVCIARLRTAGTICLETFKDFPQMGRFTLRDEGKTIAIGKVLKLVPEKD
T1 sequence (Q96SW2 whole entry): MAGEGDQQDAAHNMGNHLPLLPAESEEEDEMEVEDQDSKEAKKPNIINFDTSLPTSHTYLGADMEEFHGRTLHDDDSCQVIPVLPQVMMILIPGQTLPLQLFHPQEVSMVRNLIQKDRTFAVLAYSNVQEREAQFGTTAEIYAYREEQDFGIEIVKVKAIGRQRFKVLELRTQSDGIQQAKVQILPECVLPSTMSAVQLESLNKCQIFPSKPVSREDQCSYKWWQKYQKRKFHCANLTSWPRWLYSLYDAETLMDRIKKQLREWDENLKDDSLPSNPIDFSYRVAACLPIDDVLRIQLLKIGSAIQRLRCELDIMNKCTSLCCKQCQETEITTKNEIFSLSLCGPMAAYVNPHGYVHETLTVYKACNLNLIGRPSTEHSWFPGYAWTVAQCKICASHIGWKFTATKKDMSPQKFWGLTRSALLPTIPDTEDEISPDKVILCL
T1 sequence (Q16531 whole entry partner): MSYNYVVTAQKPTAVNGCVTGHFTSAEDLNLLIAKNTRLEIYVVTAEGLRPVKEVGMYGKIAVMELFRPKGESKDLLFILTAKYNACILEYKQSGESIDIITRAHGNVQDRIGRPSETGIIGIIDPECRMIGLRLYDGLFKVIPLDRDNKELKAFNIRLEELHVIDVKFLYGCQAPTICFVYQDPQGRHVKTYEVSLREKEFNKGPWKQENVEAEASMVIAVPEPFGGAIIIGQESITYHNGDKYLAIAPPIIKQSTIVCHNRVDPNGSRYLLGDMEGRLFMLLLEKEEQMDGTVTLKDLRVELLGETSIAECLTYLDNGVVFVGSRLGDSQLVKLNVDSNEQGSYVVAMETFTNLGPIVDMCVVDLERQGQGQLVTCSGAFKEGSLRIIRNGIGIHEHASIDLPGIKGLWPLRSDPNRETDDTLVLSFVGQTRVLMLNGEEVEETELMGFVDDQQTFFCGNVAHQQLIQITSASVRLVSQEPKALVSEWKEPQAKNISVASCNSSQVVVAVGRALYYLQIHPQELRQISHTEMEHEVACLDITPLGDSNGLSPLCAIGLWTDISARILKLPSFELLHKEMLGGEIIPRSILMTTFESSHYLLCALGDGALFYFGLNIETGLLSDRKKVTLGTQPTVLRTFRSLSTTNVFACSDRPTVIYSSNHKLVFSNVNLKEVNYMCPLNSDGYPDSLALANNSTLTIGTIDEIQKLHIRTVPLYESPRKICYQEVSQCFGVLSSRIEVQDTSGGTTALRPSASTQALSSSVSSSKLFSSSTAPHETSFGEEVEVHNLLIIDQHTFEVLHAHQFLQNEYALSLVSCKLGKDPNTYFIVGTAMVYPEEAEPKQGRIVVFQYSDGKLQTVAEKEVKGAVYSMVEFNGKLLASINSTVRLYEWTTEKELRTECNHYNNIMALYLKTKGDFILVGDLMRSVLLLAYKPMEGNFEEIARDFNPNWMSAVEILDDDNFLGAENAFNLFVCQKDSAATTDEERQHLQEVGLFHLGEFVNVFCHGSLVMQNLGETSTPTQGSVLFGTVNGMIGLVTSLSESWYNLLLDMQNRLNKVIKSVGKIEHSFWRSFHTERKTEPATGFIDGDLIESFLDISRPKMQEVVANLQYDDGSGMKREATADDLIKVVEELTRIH
T2 sequence (P00533 669-1011 T790M/L858R): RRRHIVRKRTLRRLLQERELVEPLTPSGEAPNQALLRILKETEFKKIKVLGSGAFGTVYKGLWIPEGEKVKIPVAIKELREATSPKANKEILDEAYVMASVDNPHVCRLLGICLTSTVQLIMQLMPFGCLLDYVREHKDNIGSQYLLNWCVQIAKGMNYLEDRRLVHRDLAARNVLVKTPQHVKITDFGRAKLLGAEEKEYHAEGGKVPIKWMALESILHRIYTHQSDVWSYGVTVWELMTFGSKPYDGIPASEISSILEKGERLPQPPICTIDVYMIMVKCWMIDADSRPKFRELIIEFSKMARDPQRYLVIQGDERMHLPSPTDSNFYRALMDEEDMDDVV

SMILES	DC50 (GSPT1 [1]) [nM]	DC50 (GSPT1 [2]; [4]) [nM]	DC50 (GSPT1 [2]; [5]) [nM]	DC50 (GSPT1 [2]; [6]) [nM]	DC50 (GSPT1 [2]; [7]) [nM]	Kd [3] [nM]
C=C(COc1cc(Cl)cc(NC(=O)NCc2ccc3c(c2)CN(C2CCC(=O)NC2=O)C3=O)c1)C(=O)N1C[C@H](COc2nc(Nc3cnn(C)c3)nc3[nH]cc(Cl)c23)[C@@H](OC)C1 (stereo partly shown) [Compound I-54]	< 50	< 250	< 250	< 250	< 250	> 2500
C=C(COc1cc(Cl)cc(NC(=O)NCc2ccc3c(c2)CN(C2CCC(=O)NC2=O)C3=O)c1)C(=O)Nc1cccc(Oc2nc(Nc3ccc(N4CCN(C)CC4)cc3)nc3ccsc23)c1 (stereo not shown) [Compound I-55]	50 to 500	< 250	< 250	< 250	250 to 5000	500 to 2500
C=C(COc1cc(Cl)cc(NC(=O)NCc2ccc3c(c2)CN(C2CCC(=O)NC2=O)C3=O)c1)C(=O)Nc1cc(Nc2nccc(-c3cn(C)c4ccccc34)n2)c(OC)cc1N(C)CCN(C)C (stereo not shown) [Compound I-59]	50 to 500	< 250	< 250	< 250	< 250	< 50
C=C(COc1c(Cl)cccc1NC(=O)NCc1ccc2c(c1)CN(C1CCC(=O)NC1=O)C2=O)C(=O)Nc1cc(Nc2nccc(-c3cn(C)c4ccccc34)n2)c(OC)cc1N(C)CCN(C)C (stereo not shown) [Compound I-60]	500 to 2500	250 to 5000	250 to 5000	250 to 5000	250 to 5000	< 50
C=C(COc1cc(Cl)cc(NC(=O)NCc2ccc3c(c2)CN(C2CCC(=O)NC2=O)C3=O)c1)C(=O)Nc1cccc(-c2cccc3cnc(Nc4ccc(N5CCN(CCO)CC5)c(F)c4F)nc23)c1 (stereo not shown) [Compound I-61]	50 to 500	< 250	< 250	< 250	< 250	50 to 500
C=C(CN1C(=O)CCC(N2Cc3cc(CNC(=O)Nc4ccc(C)c(Cl)c4)ccc3C2=O)C1=O)C(=O)Nc1cc(Nc2ncc(-c3cn(C)c4ccccc34)cn2)c(OC)cc1N(C)CCN(C)C (stereo not shown) [Compound I-87]	50 to 500	< 250	< 250	–	–	< 50
